Values belong to the compound of their own block, whether it stands above or below them. Activity calls are given as the source filed them. The rule behind the calls is not given here.
Key:
[1] = target: T1, Indoleamine 2,3-dioxygenase 1 (Homo sapiens, UniProt P14902); experiment: Inhibition of human N-terminal GST-tagged IDO1 expressed in Escherichia coli Rosetta(DE3) pLysS using L-tryptophan as substrate measured after 1 hr by fluorescence assay
[2] = Half life in mouse liver microsomes; assay type: ADME, Microsome
[3] = Half life in human liver microsomes; assay type: ADME, Microsome
UGT1A9 = target: T2, UGT1A9 (Homo sapiens, UniProt O60656); experiment: Stability assessed as recombinant UGT1A9 (unknown origin) mediated compound glucuronidation by measuring half-life at 1 uM incubated in water bath by shaking at 37 degree C measured upto 60 mins in presence of UDPGA by LC-MS/MS analysis; assay type: ADME
T2 sequence (O60656 whole entry): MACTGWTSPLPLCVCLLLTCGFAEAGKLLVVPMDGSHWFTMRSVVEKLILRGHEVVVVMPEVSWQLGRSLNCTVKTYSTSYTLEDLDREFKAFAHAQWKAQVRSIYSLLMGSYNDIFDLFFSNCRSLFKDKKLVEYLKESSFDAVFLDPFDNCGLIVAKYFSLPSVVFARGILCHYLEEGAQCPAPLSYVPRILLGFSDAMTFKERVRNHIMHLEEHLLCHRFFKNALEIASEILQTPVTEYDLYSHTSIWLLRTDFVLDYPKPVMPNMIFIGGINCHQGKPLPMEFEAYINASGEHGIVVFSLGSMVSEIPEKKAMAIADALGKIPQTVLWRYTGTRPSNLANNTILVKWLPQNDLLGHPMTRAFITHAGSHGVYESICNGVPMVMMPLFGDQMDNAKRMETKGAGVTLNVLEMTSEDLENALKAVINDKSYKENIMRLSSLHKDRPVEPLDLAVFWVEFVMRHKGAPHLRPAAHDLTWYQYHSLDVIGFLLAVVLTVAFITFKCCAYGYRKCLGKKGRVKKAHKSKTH

[4] = target: T1, Indoleamine 2,3-dioxygenase 1; experiment: Inhibition of IDO1 in interferon-gamma-induced human SKOV3 cells assessed as N-formylkynurenine formation using L-tryptophan as substrate measured after 24 hrs by fluorescence assay
[5] = Half life in mouse at 10 mg/kg, po by capillary micro-sampling analysis; assay type: ADME, organism-based; settings: in vivo
Cytochrome P450 2C9 = Cytochrome P450 2C9 (Homo sapiens, UniProt P11712); experiment: Inhibition of CYP2C9 (unknown origin); assay type: ADME
Chain of Cytochrome P450 2C9 (P11712 whole entry): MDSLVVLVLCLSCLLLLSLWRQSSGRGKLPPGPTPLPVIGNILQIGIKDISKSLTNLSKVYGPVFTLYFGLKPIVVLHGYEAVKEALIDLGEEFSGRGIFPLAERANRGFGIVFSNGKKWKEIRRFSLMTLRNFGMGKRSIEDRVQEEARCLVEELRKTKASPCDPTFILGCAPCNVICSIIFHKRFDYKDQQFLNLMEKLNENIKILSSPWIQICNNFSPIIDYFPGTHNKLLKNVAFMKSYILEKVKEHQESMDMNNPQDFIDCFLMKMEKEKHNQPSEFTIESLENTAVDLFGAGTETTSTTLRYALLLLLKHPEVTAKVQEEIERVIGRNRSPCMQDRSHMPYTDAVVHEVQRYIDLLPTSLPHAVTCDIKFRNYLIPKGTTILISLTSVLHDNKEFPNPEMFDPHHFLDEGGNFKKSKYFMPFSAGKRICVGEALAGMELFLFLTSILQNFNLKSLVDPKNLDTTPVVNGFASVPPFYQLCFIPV

Cytochrome P450 2D6 = Cytochrome P450 2D6 (Homo sapiens, UniProt P10635); experiment: Inhibition of CYP2D6 (unknown origin); assay type: ADME
Chain of Cytochrome P450 2D6 (P10635 whole entry): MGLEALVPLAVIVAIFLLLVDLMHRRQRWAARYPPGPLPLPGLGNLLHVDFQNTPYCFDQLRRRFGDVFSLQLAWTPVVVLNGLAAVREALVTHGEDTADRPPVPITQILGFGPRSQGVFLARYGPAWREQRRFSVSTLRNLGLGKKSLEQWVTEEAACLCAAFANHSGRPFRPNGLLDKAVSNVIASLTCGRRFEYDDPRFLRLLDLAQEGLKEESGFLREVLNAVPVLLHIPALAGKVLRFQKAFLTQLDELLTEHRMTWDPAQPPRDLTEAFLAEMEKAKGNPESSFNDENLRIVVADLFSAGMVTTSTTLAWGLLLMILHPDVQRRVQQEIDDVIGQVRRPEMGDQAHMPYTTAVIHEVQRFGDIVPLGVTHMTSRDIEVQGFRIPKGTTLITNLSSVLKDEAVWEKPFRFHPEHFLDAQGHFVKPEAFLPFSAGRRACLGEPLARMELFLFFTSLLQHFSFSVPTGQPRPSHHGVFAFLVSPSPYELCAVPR

Cytochrome P450 3A4 = Cytochrome P450 3A4 (Homo sapiens, UniProt P08684); experiment: Inhibition of CYP3A4 (unknown origin); assay type: ADME
Chain of Cytochrome P450 3A4 (P08684 whole entry): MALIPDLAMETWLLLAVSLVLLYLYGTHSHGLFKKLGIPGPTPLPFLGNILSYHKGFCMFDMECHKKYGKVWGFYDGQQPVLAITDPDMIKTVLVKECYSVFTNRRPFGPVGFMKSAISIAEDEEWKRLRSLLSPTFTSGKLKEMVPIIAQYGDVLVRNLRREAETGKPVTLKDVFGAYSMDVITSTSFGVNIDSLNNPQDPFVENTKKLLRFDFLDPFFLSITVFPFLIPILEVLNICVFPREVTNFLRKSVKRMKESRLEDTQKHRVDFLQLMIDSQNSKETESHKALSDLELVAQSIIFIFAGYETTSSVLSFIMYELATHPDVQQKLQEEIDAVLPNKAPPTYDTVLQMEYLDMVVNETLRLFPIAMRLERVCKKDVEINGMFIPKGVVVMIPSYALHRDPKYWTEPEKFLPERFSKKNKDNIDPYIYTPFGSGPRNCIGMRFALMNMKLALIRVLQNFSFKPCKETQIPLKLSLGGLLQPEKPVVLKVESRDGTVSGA

[6] = Cmax in mouse at 10 mg/kg, po by capillary micro-sampling analysis; assay type: ADME, organism-based; set-up: dose 10 mg/kg, route oral; settings: in vivo
[7] = target: Tryptophan 2,3-dioxygenase (Homo sapiens, UniProt P48775); experiment: Inhibition of TDO in human HEK cells; assay type: cell-based
Chain of Tryptophan 2,3-dioxygenase (P48775 whole entry): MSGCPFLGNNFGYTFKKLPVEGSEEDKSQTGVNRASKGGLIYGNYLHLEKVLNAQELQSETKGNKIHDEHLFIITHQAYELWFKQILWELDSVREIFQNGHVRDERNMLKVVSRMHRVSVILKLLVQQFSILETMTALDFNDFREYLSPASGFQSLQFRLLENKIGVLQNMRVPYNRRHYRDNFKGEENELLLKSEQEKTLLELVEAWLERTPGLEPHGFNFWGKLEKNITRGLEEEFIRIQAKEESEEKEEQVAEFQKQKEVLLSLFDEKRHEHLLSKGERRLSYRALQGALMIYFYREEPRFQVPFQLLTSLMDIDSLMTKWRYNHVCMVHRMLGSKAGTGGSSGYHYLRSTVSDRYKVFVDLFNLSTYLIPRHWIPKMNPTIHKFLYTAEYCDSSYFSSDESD

[8] = AUC (0 to 24 hrs) in mouse at 10 mg/kg, po by capillary micro-sampling analysis; assay type: ADME, organism-based; set-up: dose 10 mg/kg, time < 24 hr, route oral; settings: in vivo
[9] = target: T1, Indoleamine 2,3-dioxygenase 1; experiment: Inhibition IDO1 in LPS/IFN-gamma stimulated human whole blood assessed as reduction in tryptophan/kynurenine level preincubated for 15 mins followed by LPS/IFN-gamma stimulation measured after 20 hrs by LC-MS/MS analysis; assay type: tissue-based
Cytochrome P450 2C19 = Cytochrome P450 2C19 (Homo sapiens, UniProt P33261); experiment: Inhibition of CYP2C19 (unknown origin); assay type: ADME
Chain of Cytochrome P450 2C19 (P33261 whole entry): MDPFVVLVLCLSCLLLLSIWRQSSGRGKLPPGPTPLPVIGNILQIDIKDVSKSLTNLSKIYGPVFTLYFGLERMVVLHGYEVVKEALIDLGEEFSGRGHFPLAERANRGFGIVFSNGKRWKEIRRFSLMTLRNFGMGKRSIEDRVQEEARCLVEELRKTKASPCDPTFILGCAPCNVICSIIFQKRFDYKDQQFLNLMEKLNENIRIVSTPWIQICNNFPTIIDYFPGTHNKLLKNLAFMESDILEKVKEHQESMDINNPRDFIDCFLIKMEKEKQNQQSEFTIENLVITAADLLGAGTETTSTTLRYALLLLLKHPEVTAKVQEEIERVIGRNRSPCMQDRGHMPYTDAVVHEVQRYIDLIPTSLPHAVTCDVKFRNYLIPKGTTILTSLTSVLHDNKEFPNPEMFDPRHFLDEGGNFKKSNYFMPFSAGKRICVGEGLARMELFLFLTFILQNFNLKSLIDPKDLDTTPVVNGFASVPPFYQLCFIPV

[10] = AUC(0 to 12 hrs) at steady state in human assessed as ratio of glucuronide to compound at 50 mg, bid measured after 10 days; assay type: ADME; settings: in vivo
[11] = Half-life in rat at 1 mg/kg, iv administered as single dose by capillary micro-sampling analysis; assay type: ADME, organism-based; settings: in vivo
[12] = Protein binding in mouse plasma; assay type: ADME, cell-free; settings: read-out: PPB (converted)
CT26 [13] = experiment: (§1) Synergistic antitumor activity against mouse CT26 cells implanted in immunocompetent BALB/c mouse assessed as reduction in tumour growth at 100 mg/kg, po administered twice daily over 15 days starting from day 10 post implantation in presence of CTLA-4 antibody at 100 ug, ip administered at day 3,6,9 measured thrice per week by digital caliper method and monitored for 45 days; assay type: functional, organism-based
[14] = Clearance in rat at 1 mg/kg, iv administered as single dose by capillary micro-sampling analysis; assay type: ADME, organism-based; settings: in vivo
[15] = Cmax in humanized PXB-mouse assessed as ratio of glucuronide to parent compound at 10 mg/kg, po administered as single dose; assay type: ADME, organism-based; settings: in vivo
CT26 [16] = experiment: Antitumor activity against mouse CT26 cells implanted in immunocompetent BALB/c mouse assessed as reduction in tumour growth at 100 mg/kg, po administered twice daily over 15 days starting from day 10 post implantation measured thrice per week by digital caliper method; assay type: functional, organism-based
Mus musculus = experiment: In vivo inhibition of IDO1 in C57BL/6J mouse assessed as reduction in LPS-induced kynurenine level in plasma at 100 mg/kg, po administered via gavage measured after 24 hrs by LC-MS/MS analysis; assay type: functional, organism-based
[17] = Cmax in rat at 5 mg/kg, po administered as single dose by capillary micro-sampling analysis; assay type: ADME, organism-based; set-up: dose 5 mg/kg, route oral; settings: in vivo
[18] = Volume of distribution in rat at 1 mg/kg, iv administered as single dose by capillary micro-sampling analysis; assay type: ADME, organism-based; settings: in vivo
[19] = Protein binding in human plasma; assay type: ADME, cell-free; settings: read-out: PPB (converted)
[20] = Protein binding in rat plasma; assay type: ADME, cell-free; settings: read-out: PPB (converted)
[21] = AUC (0 to 24 hrs) in rat at 5 mg/kg, po administered as single dose by capillary micro-sampling analysis; assay type: ADME, organism-based; set-up: dose 5 mg/kg, time < 24 hr, route oral; settings: in vivo
[22] = Oral bioavailability in rat at 5 mg/kg administered as single dose by capillary micro-sampling analysis; assay type: ADME, organism-based; settings: in vivo
[23] = Half life in rat liver microsomes; assay type: ADME, Microsome
[24] = AUC in humanized PXB-mouse assessed as ratio of glucuronide to parent compound at 10 mg/kg, po administered as single dose; assay type: ADME, organism-based; settings: in vivo
CT26 [25] = experiment: as §1, with “survival at […]” for “reduction in tumour growth”, “week” for “week by digital caliper method”; assay type: functional, organism-based

T1 sequence (P14902 whole entry): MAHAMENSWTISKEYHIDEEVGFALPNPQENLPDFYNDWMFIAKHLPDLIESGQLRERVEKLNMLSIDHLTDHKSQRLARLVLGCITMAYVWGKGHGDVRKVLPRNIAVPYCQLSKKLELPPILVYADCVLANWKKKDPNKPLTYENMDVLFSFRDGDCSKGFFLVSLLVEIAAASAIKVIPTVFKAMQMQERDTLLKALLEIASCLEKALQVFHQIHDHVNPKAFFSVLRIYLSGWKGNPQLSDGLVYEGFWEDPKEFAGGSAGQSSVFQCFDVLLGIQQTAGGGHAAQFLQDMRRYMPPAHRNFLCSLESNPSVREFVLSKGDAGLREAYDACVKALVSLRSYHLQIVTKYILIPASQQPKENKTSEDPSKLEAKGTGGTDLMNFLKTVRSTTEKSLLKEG

IC50 [1]: 140 nM | half-life [2]: 1.66 h | half-life [3]: 2.43 h | half-life at 1 µM (UGT1A9): 0.858 h | IC50 [4]: 7.6 nM
SMILES: CS(=O)(=O)CCC(=O)NCCSc1nonc1/C(=N/O)Nc1ccc(F)c(Br)c1

half-life [5]: 3.6 h | IC50 (Cytochrome P450 2C9): > 10000 nM | IC50 [1]: 93 nM | IC50 (Cytochrome P450 2D6): > 10000 nM | IC50 (Cytochrome P450 3A4): > 10000 nM | Cmax [6]: 3.3 µM | half-life [2]: 2.75 h | IC50 [7]: > 10000 nM | AUC(0-t) at 24 h [8]: 30 µM·h | half-life [3]: > 3 h | half-life at 1 µM (UGT1A9): > 3 h | IC50 [9]: 320 nM | IC50 (Cytochrome P450 2C19): > 10000 nM | IC50 [4]: 21 nM
SMILES: NS(=O)(=O)NCC(=O)NCCSc1nonc1/C(=N/O)Nc1ccc(F)c(C(F)F)c1

IC50 [1]: 70 nM | half-life [2]: 0.245 h | half-life [3]: 1.28 h | half-life at 1 µM (UGT1A9): > 3 h | IC50 [4]: 13 nM
SMILES: O=C(NCCSc1nonc1/C(=N/O)Nc1ccc(F)c(C(F)F)c1)C1CS(=O)(=O)C1

IC50 [1]: 73 nM | half-life [2]: 1.07 h | half-life [3]: 2.77 h | half-life at 1 µM (UGT1A9): > 3 h | IC50 [4]: 13 nM
SMILES: NS(=O)(=O)CC(=O)NCCSc1nonc1/C(=N/O)Nc1ccc(F)c(C(F)F)c1

Ratio [10]: 8.1
SMILES: NS(=O)(=O)NCCNc1nonc1/C(=N/OC1OC(C(=O)O)C(O)C(O)C1O)Nc1ccc(F)c(Br)c1 (stereo unspecified)

IC50 [1]: 61 nM | half-life [2]: 1.25 h | half-life [3]: 2.65 h | half-life at 1 µM (UGT1A9): 1.53 h | IC50 [4]: 14 nM
SMILES: CS(=N)(=O)CC(=O)NCCSc1nonc1/C(=N/O)Nc1ccc(F)c(Br)c1 (stereo unspecified)

IC50 [1]: 71 nM | half-life [2]: 1.12 h | half-life [3]: 2.37 h | half-life at 1 µM (UGT1A9): 0.758 h | IC50 [4]: 12 nM
SMILES: NS(=O)(=O)CC(=O)NCCSc1nonc1/C(=N/O)Nc1ccc(F)c(Br)c1

half-life [11]: 1.5 h | half-life [5]: 2.6 h | IC50 (Cytochrome P450 2C9): > 10000 nM | fraction unbound [12]: 0.026 | IC50 [1]: 21 nM | IC50 (Cytochrome P450 2D6): > 10000 nM | IC50 (Cytochrome P450 3A4): > 10000 nM | Cmax [6]: 5 µM | half-life [2]: 1.26 h | clearance [14]: 3.65 mL/min/kg | Ratio [15]: > 3 | IC50 [7]: > 10000 nM | AUC(0-t) at 24 h [8]: 11.9 µM·h | Cmax [17]: 5.6 µM | half-life [3]: > 3 h | Vd [18]: 0.33 L/kg | fraction unbound [19]: 0.046 | fraction unbound [20]: 0.043 | half-life at 1 µM (UGT1A9): 0.9 h | AUC(0-t) at 24 h [21]: 26 µM·h | bioavailability [22]: 28% | IC50 [9]: 220 nM | half-life [23]: 0.562 h | IC50 (Cytochrome P450 2C19): > 10000 nM | Ratio [24]: > 2 | IC50 [4]: 10 nM
SMILES: NS(=O)(=O)CC(=O)NCCSc1nonc1/C(=N/O)Nc1cccc(Cl)c1
Activity (CT26 [13]): Active | Activity (CT26 [16]): Active | inhibition (Mus musculus): Active | Activity (CT26 [25]): Active

IC50 [1]: 130 nM | half-life at 1 µM (UGT1A9): 0.183 h | IC50 [4]: 2.8 nM
SMILES: NS(=O)(=O)NCCSc1nonc1/C(=N/O)Nc1ccc(F)c(Br)c1

IC50 [1]: 150 nM | half-life at 1 µM (UGT1A9): 0.0483 h | IC50 [4]: 12 nM
SMILES: NS(=O)(=O)NCCOc1nonc1/C(=N/O)Nc1ccc(F)c(Br)c1

IC50 [1]: 84 nM | half-life [2]: 0.923 h | half-life [3]: 1.88 h | half-life at 1 µM (UGT1A9): 1.45 h | IC50 [4]: 13 nM
SMILES: NS(=O)(=O)CC(=O)NCCSc1nonc1/C(=N/O)Nc1ccc(F)c(C(F)(F)F)c1

IC50 [1]: 180 nM | half-life [2]: 0.278 h | half-life [3]: 2.77 h | half-life at 1 µM (UGT1A9): 1.73 h | IC50 [4]: 6.5 nM
SMILES: N#CCC(=O)NCCSc1nonc1/C(=N/O)Nc1ccc(F)c(C(F)F)c1

IC50 [1]: 150 nM | half-life [2]: 2.38 h | half-life [3]: > 3 h | half-life at 1 µM (UGT1A9): > 3 h | IC50 [4]: 39 nM
SMILES: N#Cc1cc(N/C(=N\O)c2nonc2SCCNC(=O)CS(N)(=O)=O)ccc1F
